Experimental data taken from patent US10131652B2, “Pyrimidinyloxy benzene derivatives as herbicides” (E. I. DU PONT DE NEMOURS AND COMPANY, priority 2014, dated 2018).
Where two headings read alike, the source gives them in different places.

Legend:
Assay in all cases: Test E pre-/postemergence plant response
Type in all cases: in vivo
[1] = tested on: winter barley (Hordeum vulgare); settings: post-emergence, Postemergence, scale 0 to 100, read-out: Plant response rating, Barley, Winter
Outline: (§1)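 Visual scores on a 0–100 scale (100 = complete control) were assigned against untreated controls 7–21 days after treatment in a controlled environment. Compounds, formulated with solvent plus surfactant, were applied to pre-emergence silt-loam sowings or to 1- to 4-leaf plants (2–18 cm) in potting medium.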

[2] = tested on: wild mustard (Sinapis arvensis); settings: Brassica, scale 0 to 100, read-out: Plant response rating, Mustard, Wild; for pest or weed control at 16 g/ha: 16 g ai/ha; for pest or weed control at 31 g/ha: 31 g ai/ha; for pest or weed control at 62 g/ha: 62 g ai/ha; for pest or weed control at 125 g/ha: 125 g ai/ha
Outline: as §1

[3] = tested on: blackgrass (Alopecurus myosuroides); settings: scale 0 to 100, read-out: Plant response rating, Blackgrass; for pest or weed control at 16 g/ha: 16 g ai/ha; for pest or weed control at 31 g/ha: 31 g ai/ha; for pest or weed control at 62 g/ha: 62 g ai/ha; for pest or weed control at 125 g/ha: 125 g ai/ha
Outline: as §1

[4] = tested on: chamomile (scentless chamomile, Matricaria inodora); settings: Tripleurospermum inodorum, scale 0 to 100, read-out: Plant response rating, Chamomile; for pest or weed control at 16 g/ha: 16 g ai/ha; for pest or weed control at 31 g/ha: 31 g ai/ha; for pest or weed control at 62 g/ha: 62 g ai/ha; for pest or weed control at 125 g/ha: 125 g ai/ha
Outline: as §1

[5] = tested on: downy bromegrass (Bromus tectorum); settings: scale 0 to 100, read-out: Plant response rating, Bromegrass, Downy; for pest or weed control at 16 g/ha: 16 g ai/ha; for pest or weed control at 31 g/ha: 31 g ai/ha; for pest or weed control at 62 g/ha: 62 g ai/ha; for pest or weed control at 125 g/ha: 125 g ai/ha
Outline: as §1

[6] = tested on: deadnettle (henbit deadnettle, Lamium amplexicaule); settings: scale 0 to 100, read-out: Plant response rating, Deadnettle; for pest or weed control at 16 g/ha: 16 g ai/ha; for pest or weed control at 31 g/ha: 31 g ai/ha; for pest or weed control at 62 g/ha: 62 g ai/ha; for pest or weed control at 125 g/ha: 125 g ai/ha
Outline: as §1

[7] = tested on: field poppy (Papaver rhoeas); settings: scale 0 to 100, read-out: Plant response rating, Field Poppy; for pest or weed control at 16 g/ha: 16 g ai/ha; for pest or weed control at 31 g/ha: 31 g ai/ha; for pest or weed control at 62 g/ha: 62 g ai/ha; for pest or weed control at 125 g/ha: 125 g ai/ha
Outline: as §1

[8] = tested on: canarygrass (Phalaris minor); settings: scale 0 to 100, read-out: Plant response rating, Canarygrass; for pest or weed control at 16 g/ha: 16 g ai/ha; for pest or weed control at 31 g/ha: 31 g ai/ha; for pest or weed control at 62 g/ha: 62 g ai/ha; for pest or weed control at 125 g/ha: 125 g ai/ha
Outline: as §1

[9] = tested on: windgrass (Apera spica-venti); settings: scale 0 to 100, read-out: Plant response rating, Windgrass; for pest or weed control at 16 g/ha: 16 g ai/ha; for pest or weed control at 62 g/ha: 62 g ai/ha; for pest or weed control at 125 g/ha: 125 g ai/ha
Outline: as §1

[10] = tested on: green foxtail (Setaria viridis); settings: scale 0 to 100, read-out: Plant response rating, Foxtail, Green; for pest or weed control at 16 g/ha: 16 g ai/ha; for pest or weed control at 31 g/ha: 31 g ai/ha; for pest or weed control at 62 g/ha: 62 g ai/ha; for pest or weed control at 125 g/ha: 125 g ai/ha
Outline: as §1

[11] = tested on: pigweed (Amaranthus retroflexus); settings: scale 0 to 100, read-out: Plant response rating, Pigweed; for pest or weed control at 16 g/ha: 16 g ai/ha; for pest or weed control at 31 g/ha: 31 g ai/ha; for pest or weed control at 62 g/ha: 62 g ai/ha; for pest or weed control at 125 g/ha: 125 g ai/ha
Outline: as §1

FC(F)c1cc(-c2ccccc2Oc2ncc(Cl)cn2)no1 [Compound 35, 5-chloro-2-[2-[5-(difluoromethyl)-3-isoxazolyl]phenoxy]pyrimidine]
plant injury at 16 g/ha ([1]; 16 g ai/ha): 0% | plant injury at 31 g/ha ([1]; 31 g ai/ha): 0% | plant injury at 62 g/ha ([1]; 62 g ai/ha): 5% | plant injury at 125 g/ha ([1]; 125 g ai/ha): 30% | pest or weed control at 16 g/ha ([2]; post-emergence, Postemergence): 90% | pest or weed control at 31 g/ha ([2]; post-emergence, Postemergence): 85% | pest or weed control at 62 g/ha ([2]; post-emergence, Postemergence): 85% | pest or weed control at 125 g/ha ([2]; post-emergence, Postemergence): 100% | pest or weed control at 16 g/ha ([2]; pre-emergence, Preemergence): 20% | pest or weed control at 31 g/ha ([2]; pre-emergence, Preemergence): 60% | pest or weed control at 62 g/ha ([2]; pre-emergence, Preemergence): 95% | pest or weed control at 125 g/ha ([2]; pre-emergence, Preemergence): 95% | pest or weed control at 16 g/ha ([3]; post-emergence, Postemergence): 20% | pest or weed control at 31 g/ha ([3]; post-emergence, Postemergence): 35% | pest or weed control at 62 g/ha ([3]; post-emergence, Postemergence): 55% | pest or weed control at 125 g/ha ([3]; post-emergence, Postemergence): 60% | pest or weed control at 16 g/ha ([3]; pre-emergence, Preemergence): 30% | pest or weed control at 31 g/ha ([3]; pre-emergence, Preemergence): 60% | pest or weed control at 62 g/ha ([3]; pre-emergence, Preemergence): 65% | pest or weed control at 125 g/ha ([3]; pre-emergence, Preemergence): 95% | pest or weed control at 16 g/ha ([4]; post-emergence, Postemergence): 5% | pest or weed control at 31 g/ha ([4]; post-emergence, Postemergence): 5% | pest or weed control at 62 g/ha ([4]; post-emergence, Postemergence): 5% | pest or weed control at 125 g/ha ([4]; post-emergence, Postemergence): 10% | pest or weed control at 16 g/ha ([4]; pre-emergence, Preemergence): 5% | pest or weed control at 31 g/ha ([4]; pre-emergence, Preemergence): 10% | pest or weed control at 62 g/ha ([4]; pre-emergence, Preemergence): 70% | pest or weed control at 125 g/ha ([4]; pre-emergence, Preemergence): 70% | pest or weed control at 16 g/ha ([5]; post-emergence, Postemergence): 5% | pest or weed control at 31 g/ha ([5]; post-emergence, Postemergence): 5% | pest or weed control at 62 g/ha ([5]; post-emergence, Postemergence): 15% | pest or weed control at 125 g/ha ([5]; post-emergence, Postemergence): 30% | pest or weed control at 16 g/ha ([5]; pre-emergence, Preemergence): 0% | pest or weed control at 31 g/ha ([5]; pre-emergence, Preemergence): 35% | pest or weed control at 62 g/ha ([5]; pre-emergence, Preemergence): 35% | pest or weed control at 125 g/ha ([5]; pre-emergence, Preemergence): 25% | pest or weed control at 16 g/ha ([6]; post-emergence, Postemergence): 40% | pest or weed control at 31 g/ha ([6]; post-emergence, Postemergence): 60% | pest or weed control at 62 g/ha ([6]; post-emergence, Postemergence): 70% | pest or weed control at 125 g/ha ([6]; post-emergence, Postemergence): 80% | pest or weed control at 16 g/ha ([6]; pre-emergence, Preemergence): 35% | pest or weed control at 31 g/ha ([6]; pre-emergence, Preemergence): 80% | pest or weed control at 62 g/ha ([6]; pre-emergence, Preemergence): 95% | pest or weed control at 125 g/ha ([6]; pre-emergence, Preemergence): 95% | pest or weed control at 16 g/ha ([7]; post-emergence, Postemergence): 70% | pest or weed control at 31 g/ha ([7]; post-emergence, Postemergence): 75% | pest or weed control at 62 g/ha ([7]; post-emergence, Postemergence): 80% | pest or weed control at 125 g/ha ([7]; post-emergence, Postemergence): 100% | pest or weed control at 16 g/ha ([7]; pre-emergence, Preemergence): 75% | pest or weed control at 31 g/ha ([7]; pre-emergence, Preemergence): 80% | pest or weed control at 62 g/ha ([7]; pre-emergence, Preemergence): 90% | pest or weed control at 125 g/ha ([7]; pre-emergence, Preemergence): 90% | pest or weed control at 16 g/ha ([8]; post-emergence, Postemergence): 10% | pest or weed control at 31 g/ha ([8]; post-emergence, Postemergence): 25% | pest or weed control at 62 g/ha ([8]; post-emergence, Postemergence): 55% | pest or weed control at 125 g/ha ([8]; post-emergence, Postemergence): 60% | pest or weed control at 16 g/ha ([8]; pre-emergence, Preemergence): 40% | pest or weed control at 31 g/ha ([8]; pre-emergence, Preemergence): 55% | pest or weed control at 62 g/ha ([8]; pre-emergence, Preemergence): 95% | pest or weed control at 125 g/ha ([8]; pre-emergence, Preemergence): 100% | pest or weed control at 16 g/ha ([9]; post-emergence, Postemergence): 10% | pest or weed control at 31 g/ha ([9]; post-emergence, 31 g ai/ha, Postemergence): 25% | pest or weed control at 62 g/ha ([9]; post-emergence, Postemergence): 30% | pest or weed control at 125 g/ha ([9]; post-emergence, Postemergence): 40% | pest or weed control at 16 g/ha ([9]; pre-emergence, Preemergence): 35% | pest or weed control at 62 g/ha ([9]; pre-emergence, Preemergence): 85% | pest or weed control at 125 g/ha ([9]; pre-emergence, Preemergence): 100% | pest or weed control at 16 g/ha ([10]; post-emergence, Postemergence): 20% | pest or weed control at 31 g/ha ([10]; post-emergence, Postemergence): 35% | pest or weed control at 62 g/ha ([10]; post-emergence, Postemergence): 55% | pest or weed control at 125 g/ha ([10]; post-emergence, Postemergence): 55% | pest or weed control at 16 g/ha ([10]; pre-emergence, Preemergence): 5% | pest or weed control at 31 g/ha ([10]; pre-emergence, Preemergence): 90% | pest or weed control at 62 g/ha ([10]; pre-emergence, Preemergence): 90% | pest or weed control at 125 g/ha ([10]; pre-emergence, Preemergence): 100% | pest or weed control at 16 g/ha ([11]; post-emergence, Postemergence): 85% | pest or weed control at 31 g/ha ([11]; post-emergence, Postemergence): 90% | pest or weed control at 62 g/ha ([11]; post-emergence, Postemergence): 90% | pest or weed control at 125 g/ha ([11]; post-emergence, Postemergence): 90% | pest or weed control at 16 g/ha ([11]; pre-emergence, Preemergence): 90% | pest or weed control at 31 g/ha ([11]; pre-emergence, Preemergence): 95% | pest or weed control at 62 g/ha ([11]; pre-emergence, Preemergence): 100% | pest or weed control at 125 g/ha ([11]; pre-emergence, Preemergence): 100%
